From ChEMBL document CHEMBL1150698, “Placidenes C-F, novel alpha-pyrone propionates from the Mediterranean sacoglossan Placida dendritica” (J Nat Prod, 2003)

What was measured:
Gambusia affinis = assay: Toxicity in Gambusia affinis; format: organism-based; settings: in vivo
[1] = Stability at pH 1 to 5; format: physicochemical; settings: buffer

Stability [1]	SMILES	Activity (Gambusia affinis)
–	C/C=C(C)\C=C(/C)c1oc(=O)c(C)c(OC)c1C [PLACIDENE F]	Non-toxic
–	CCCC(C)c1oc(=O)cc(OC)c1C (configuration not stated) [PLACIDENE E]	Non-toxic
–	CCCC(C)/C=C/c1oc(=O)cc(OC)c1C (configuration not stated) [PLACIDENE D]	Non-toxic
Stable	CC/C=C(C)\C=C(/C)c1oc(OC)c(C)c(=O)c1C [PLACIDENE A]	Non-toxic
Stable	CCC(C)/C=C/c1oc(=O)cc(OC)c1C (configuration not stated) [PLACIDENE C]	Non-toxic
